What all share (type): cell-based
One data set addresses human CXCR3A (Homo sapiens (Human), UniProt P49682). Put plainly: FLIPR assay (CXCL10-induced calcium signal). To be noted: CHO-K1 cells expressing human CXCR3A coupled to Galpha(16); CXCL10 agonist 20 nM; mean values. From the text: (§1) In the case where IC50 values have been determined several times for the same compound, mean values are given.
Another data set concerns the target CXCR3 (Homo sapiens (Human), UniProt P49682). Put plainly: Receptor internalization assay in human whole blood (CXCR3 surface expression on CD4 positive cells, CXCL10). To be noted: final CXCL10 9 nM, 30 min at 37° C., mean values. As to the method:
Diluted compounds are then mixed with an equal volume of CXCL10 (Peprotech) diluted in PBS. Anticoagulated venous human whole blood is added to the mixture, which is then incubated in a CO2 incubator at 37° C. to allow for ligand mediated receptor internalization (final CXCL10 concentration is 9 nM). After 30 min, the blood is mixed with fluorescently labeled CXCR3 and CD4 specific antibodies (Becton Dickinson) and incubated on ice for 10 minutes. Samples are then mixed with BD FACS Lysing Solution (Becton Dickinson) in order to eliminate red blood cells. After washing the cells with PBS containing 0.5% BSA, the samples are then analyzed in a flow cytometer (FACS Canto II, Becton Dickinson). For data analysis using FACSDiva software (Becton Dickinson), the mean fluorescence corresponding to CXCR3 cell surface expression was determined on CD4 positive cells. The program GraphPad Prism or similar software is used to fit the data to a single site dose response curve and to calculate IC50 values.
as §1

For another data set, the target named is hERG K channel (Homo sapiens (Human), UniProt Q12809). Put plainly: hERG Q-Patch assay. To be noted: CHO cells expressing hERG, K+ tail current 3 min after application, mean of two or three experiments. As to the method:
Compounds are evaluated for block of the hERG K channel using CHO cells stably expressing the hERG gene (accession number U04270, bSys, Witterswil, Switzerland) and the QPatch robotic platform (Sophion, Ballerup, Denmark) in single-cell mode at room temperature. Cells are grown in culture flasks at 37° C. in 5% CO2, in culture medium (Ham's F-12 Nutrient Mixture, Invitrogen 21765-029) supplemented with 9% (v/v) fetal calf serum, 0.9% Penicillin/Streptomycin (10,000 U/mL, Invitrogen 15140148), 100 μg/mL Hygromycin B (Invitrogen 10687010). When the cells are ˜80% confluent (every 2-3 days), they are either split for further culture or used for electrophysiology. For further culture, cells are detached with 0.25% Trypsin EDTA solution (Invitrogen 25200-056) and a fraction of the cells (10-30%) is reseeded in culture medium. For electrophysiology, on the experimental day, cells are detached with 0.25% Trypsin EDTA solution and all cells are suspended in suspension medium (293 SFM II, Invitrogen 11686-029) supplemented with 20 mM HEPES and 0.04 mg/mL Trypsin inhibitor. Cells are kept in suspension medium at 32-35° C. in the QPatch robot until use, at which time aliquots are transferred to the extracellular solution (in mM: NaCl 150; KCl 4; CaCl2 1.2; MgCl2 1; HEPES 10; pH 7.4 with NaOH) containing 0.3% v/v DMSO and applied to the test plates. K^+ currents are measured with the patch-voltage-clamp technique in the whole-cell configuration with the internal solution (in mM: KCl, 140; NaCl, 10; MgCl2, 1; HEPES, 10: EGTA, 5; pH=7.2 with KOH). Currents are low-pass filtered using the internal Bessel filter of the QPatch robot with a cut-off frequency of 2 kHz and are digitized at 10 kHz. K^+ tail currents are produced from a holding voltage of −80 mV by a 500-ms depolarization to +20 mV followed by a 500-ms repolarization to −40 mV; tail current amplitudes are measured at the end of the repolarization to −40 mV. The pulse pattern is repeated every 10 sec during the experiment, baseline K^+ current is measured after 3 min in extracellular solution, test-solution containing compound is then applied, and K^+ current in presence of compound is measured 3 minutes after application to the cells. The respective test-solution is prepared by (1) dissolving the test-compound in pure DMSO, (2) diluting this DMSO solution in extracellular solution, and (3) adding further DMSO, such that the final test-solution has a concentration of either 300 nM or 3000 nM of the test-compound and contains 0.3% v/v DMSO. Compound effects are quantified as % block by dividing the current in presence of compound by the baseline current; two or three experiments are performed for each compound and the final value represents the mean of the results of each experiment.
On the technique in general: hERG is a cardiac potassium channel; its block is linked to QT prolongation.

Sequence of hERG K channel (Q12809 whole entry): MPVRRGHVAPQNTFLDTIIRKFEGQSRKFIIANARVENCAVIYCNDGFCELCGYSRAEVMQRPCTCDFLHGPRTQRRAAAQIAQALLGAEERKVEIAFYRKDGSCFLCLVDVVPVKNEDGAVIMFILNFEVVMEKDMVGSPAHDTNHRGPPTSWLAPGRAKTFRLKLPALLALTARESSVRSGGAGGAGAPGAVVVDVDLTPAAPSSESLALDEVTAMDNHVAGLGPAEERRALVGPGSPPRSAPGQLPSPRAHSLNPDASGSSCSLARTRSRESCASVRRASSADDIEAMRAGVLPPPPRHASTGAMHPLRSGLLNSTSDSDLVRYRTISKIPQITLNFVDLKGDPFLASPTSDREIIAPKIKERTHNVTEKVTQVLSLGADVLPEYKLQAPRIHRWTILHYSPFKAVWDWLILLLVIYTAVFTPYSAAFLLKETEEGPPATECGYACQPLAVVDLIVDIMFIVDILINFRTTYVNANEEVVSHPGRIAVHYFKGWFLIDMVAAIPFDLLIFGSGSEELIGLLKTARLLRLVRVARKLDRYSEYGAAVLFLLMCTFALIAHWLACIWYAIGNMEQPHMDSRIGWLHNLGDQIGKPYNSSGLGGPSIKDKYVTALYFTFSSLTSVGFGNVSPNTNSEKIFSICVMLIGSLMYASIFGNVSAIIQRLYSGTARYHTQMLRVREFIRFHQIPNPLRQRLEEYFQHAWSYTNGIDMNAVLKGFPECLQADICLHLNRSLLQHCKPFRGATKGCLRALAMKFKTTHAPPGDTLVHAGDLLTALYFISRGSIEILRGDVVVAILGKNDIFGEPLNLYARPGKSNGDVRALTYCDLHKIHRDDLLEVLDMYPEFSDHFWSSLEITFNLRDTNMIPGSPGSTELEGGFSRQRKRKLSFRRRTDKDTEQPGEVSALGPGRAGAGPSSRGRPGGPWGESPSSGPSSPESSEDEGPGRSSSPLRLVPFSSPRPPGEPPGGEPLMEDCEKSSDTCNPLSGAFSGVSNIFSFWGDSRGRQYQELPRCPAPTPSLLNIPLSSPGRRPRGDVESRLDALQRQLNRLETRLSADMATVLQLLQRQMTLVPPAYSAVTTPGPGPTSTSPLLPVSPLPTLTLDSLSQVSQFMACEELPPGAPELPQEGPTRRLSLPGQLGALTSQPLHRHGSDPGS
Sequence of CXCR3 (P49682 whole entry): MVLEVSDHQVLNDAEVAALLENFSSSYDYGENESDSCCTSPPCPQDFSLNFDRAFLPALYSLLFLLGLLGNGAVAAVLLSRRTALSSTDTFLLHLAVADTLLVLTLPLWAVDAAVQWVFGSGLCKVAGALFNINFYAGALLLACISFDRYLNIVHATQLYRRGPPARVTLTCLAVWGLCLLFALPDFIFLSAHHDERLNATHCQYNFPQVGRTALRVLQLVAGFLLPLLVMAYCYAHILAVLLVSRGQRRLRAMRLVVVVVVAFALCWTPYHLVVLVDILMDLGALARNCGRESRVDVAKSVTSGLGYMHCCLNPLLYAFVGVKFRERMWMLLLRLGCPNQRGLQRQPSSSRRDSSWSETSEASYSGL
Sequence of human CXCR3A (P49682 whole entry): as above

The term IC50 denotes the concentration that inhibits the measured activity by half. Regarding `CC(C)(C)c1ncn(CC(=O)N2CCN(c3sc(C(F)(F)F)nc3-c3cnc(C(F)(F)F)nc3)C[C@H]2CO)n1` [Example 1, 2-(3-tert-Butyl-[1,2,4]triazol-1-yl)-1-{(S)-2-hydroxymethyl-4-[2-trifluoromethyl-4-(2-trifluoromethyl-pyrimidin-5-yl)-thiazol-5-yl]-piperazin-1-yl}-ethanone], the 50% inhibitory concentration (IC50) on human CXCR3A was 6.7 nM; on CXCR3 it was 415 nM. Further, the results for the “% block” value at hERG K channel (concentration 300 nM) and at hERG K channel (concentration 3000 nM) were 2% and 12%, respectively.
As to `Cc1nc(C)n(CC(=O)N2CCN(c3sc(C(F)(F)F)nc3-c3cnc(C(F)(F)F)nc3)C[C@H]2CO)n1` [Example 2, 2-(3,5-Dimethyl-[1,2,4]triazol-1-yl)-1-{(S)-2-hydroxymethyl-4-[2-trifluoromethyl-4-(2-trifluoromethyl-pyrimidin-5-yl)-thiazol-5-yl]-piperazin-1-yl}-ethanone], the IC50 on human CXCR3A was found to be 6 nM; at CXCR3 it was 463 nM. The results for the “% block” value at hERG K channel (concentration 300 nM) and on hERG K channel (concentration 3000 nM) were −3% and −4%, respectively.
The like results for `O=C(Cn1cnc(C2CC2)n1)N1CCN(c2sc(C(F)(F)F)nc2-c2cnc(C(F)(F)F)nc2)C[C@H]1CO` [Example 3, 2-(3-Cyclopropyl-[1,2,4]triazol-1-yl)-1-{(S)-2-hydroxymethyl-4-[2-trifluoromethyl-4-(2-trifluoromethyl-pyrimidin-5-yl)-thiazol-5-yl]-piperazin-1-yl}-ethanone] were, in that order, 3 nM, 191 nM, 0% and 12%.
Regarding `CC(C)c1ncn(CC(=O)N2CCN(c3sc(C(F)(F)F)nc3-c3cnc(C(F)(F)F)nc3)C[C@H]2CO)n1` [Example 4, 1-{(S)-2-Hydroxymethyl-4-[2-trifluoromethyl-4-(2-trifluoromethyl-pyrimidin-5-yl)-thiazol-5-yl]-piperazin-1-yl}-2-(3-isopropyl-[1,2,4]triazol-1-yl)-ethanone], the values for the IC50 at human CXCR3A and at CXCR3 were 1.8 nM and 283 nM, respectively. In addition, the entries for the “% block” value on hERG K channel (concentration 300 nM) and on hERG K channel (concentration 3000 nM) were 4% and 13%, respectively.
Consider `O=C(Cn1cnc(C(F)(F)F)n1)N1CCN(c2sc(C(F)(F)F)nc2-c2cnc(C(F)(F)F)nc2)C[C@H]1CO` [Example 5, 1-{(S)-2-Hydroxymethyl-4-[2-trifluoromethyl-4-(2-trifluoromethyl-pyrimidin-5-yl)-thiazol-5-yl]-piperazin-1-yl}-2-(3-trifluoromethyl-[1,2,4]triazol-1-yl)-ethanone], for which the half-inhibitory concentration (IC50) at human CXCR3A was found to be 4 nM; at CXCR3 it was 328 nM. Also, the “% block” value at hERG K channel (concentration 300 nM) is −2%; on hERG K channel (concentration 3000 nM), 7%.
Take `CCOc1ncc(-c2nc(C(F)(F)F)sc2N2CCN(C(=O)Cn3cnc(C(F)(F)F)n3)[C@H](CO)C2)cn1` [Example 6, 1-{(S)-4-[4-(2-Ethoxy-pyrimidin-5-yl)-2-trifluoromethyl-thiazol-5-yl]-2-hydroxymethyl-piperazin-1-yl}-2-(3-trifluoromethyl-[1,2,4]triazol-1-yl)-ethanone]: the IC50 was 4.6 nM on human CXCR3A and 778 nM against CXCR3. Besides, the results for the “% block” value on hERG K channel (concentration 300 nM) and at hERG K channel (concentration 3000 nM) were 13% and 23%, respectively.
With `CCOc1ncc(-c2nc(C(F)(F)F)sc2N2CCN(C(=O)Cn3nc(C)nc3C)[C@H](CO)C2)cn1` [Example 7, 2-(3,5-Dimethyl-[1,2,4]triazol-1-yl)-1-{(S)-4-[4-(2-ethoxy-pyrimidin-5-yl)-2-trifluoromethyl-thiazol-5-yl]-2-hydroxymethyl-piperazin-1-yl}-ethanone], the IC50 was 3.1 nM on human CXCR3A and 2270 nM on CXCR3. Further, the “% block” value on hERG K channel (concentration 300 nM) is on record as 24%; on hERG K channel (concentration 3000 nM) it was 45%.
As for `Cc1nc(C)n(CC(=O)N2CCN(c3sc(C(F)(F)F)nc3-c3cnc(C4CC4)nc3)C[C@H]2CO)n1` [Example 8, 1-{(S)-4-[4-(2-Cyclopropyl-pyrimidin-5-yl)-2-trifluoromethyl-thiazol-5-yl]-2-hydroxymethyl-piperazin-1-yl}-2-(3,5-dimethyl-[1,2,4]triazol-1-yl)-ethanone], the 50% inhibitory concentration (IC50) on human CXCR3A amounted to 10 nM; against CXCR3, 3200 nM. Besides, the “% block” value at hERG K channel (concentration 300 nM) is on record as 19%; on hERG K channel (concentration 3000 nM) it was 54%.
As for `O=C(Cn1cnc(C(F)(F)F)n1)N1CCN(c2sc(C(F)(F)F)nc2-c2cnc(C3CC3)nc2)C[C@H]1CO` [Example 9, 1-{(S)-4-[4-(2-Cyclopropyl-pyrimidin-5-yl)-2-trifluoromethyl-thiazol-5-yl]-2-hydroxymethyl-piperazin-1-yl}-2-(3-trifluoromethyl-[1,2,4]triazol-1-yl)-ethanone], the concentration for half-maximal inhibition (IC50) at human CXCR3A was 1.3 nM; at CXCR3, 1520 nM. The “% block” value on hERG K channel (concentration 300 nM) was found to be 8%; at hERG K channel (concentration 3000 nM), 24%.
For `CC(C)c1ncn(CC(=O)N2CCN(c3sc(C(F)(F)F)nc3-c3ccc(C(F)(F)F)nc3)C[C@@H]2CO)n1` [Example 10, 1-{(R)-2-Hydroxymethyl-4-[2-trifluoromethyl-4-(6-trifluoromethyl-pyridin-3-yl)-thiazol-5-yl]-piperazin-1-yl}-2-(3-isopropyl-[1,2,4]triazol-1-yl)-ethanone], the values for the IC50 on human CXCR3A and at CXCR3 were 1.1 nM and 961 nM, respectively. Further, the “% block” value at hERG K channel (concentration 300 nM) stood at 2%; on hERG K channel (concentration 3000 nM), 12%.
`CC(C)c1ncn(CC(=O)N2CCN(c3sc(C(F)(F)F)nc3-c3cnc(C(F)(F)F)nc3)C[C@@H]2CO)n1` [Example 11, 1-{(R)-2-Hydroxymethyl-4-[2-trifluoromethyl-4-(2-trifluoromethyl-pyrimidin-5-yl)-thiazol-5-yl]-piperazin-1-yl}-2-(3-isopropyl-[1,2,4]triazol-1-yl)-ethanone]: the IC50 turned out to be 3.4 nM at human CXCR3A and 339 nM on CXCR3. The “% block” value at hERG K channel (concentration 300 nM) came out at 5%; at hERG K channel (concentration 3000 nM), 11%.
The like results for `Cc1nc(C)n(CC(=O)N2CCN(c3sc(C(F)(F)F)nc3-c3cnc(C(F)(F)F)nc3)C[C@@H]2CO)n1` [Example 12, 2-(3,5-Dimethyl-[1,2,4]triazol-1-yl)-1-{(R)-2-hydroxymethyl-4-[2-trifluoromethyl-4-(2-trifluoromethyl-pyrimidin-5-yl)-thiazol-5-yl]-piperazin-1-yl}-ethanone] were, in that order, 6.9 nM, 324 nM, 1% and 3%.
Turning to `O=C(Cn1cnc2ccccc21)N1CCN(c2sc(C(F)(F)F)nc2-c2cnc(C(F)(F)F)nc2)C[C@@H]1CO` [Example 13, 2-Benzoimidazol-1-yl-1-{(R)-2-hydroxymethyl-4-[2-trifluoromethyl-4-(2-trifluoromethyl-pyrimidin-5-yl)-thiazol-5-yl]-piperazin-1-yl}-ethanone], the values for the IC50 on human CXCR3A and against CXCR3 were 1.2 nM and 1050 nM, respectively. Also, the “% block” value came out at 5% at hERG K channel (concentration 300 nM) and 17% on hERG K channel (concentration 3000 nM).

For the origin of these results see patent publication US10053457B2, “Hydroxyalkyl-piperazine derivatives as CXCR3 receptor modulators” (IDORSIA PHARMACEUTICALS LTD, priority 2015, dated 2018).
